This note sets out measurements from patent US12207654B2, “Bactericidal agent for agricultural or horticultural use, plant disease control method, and product for plant disease control use” (Kureha Corporation, priority 2019, dated 2025).

The structures appear in SMILES notation. Several values for one entry are separate records, joined by “and”; a condition that tells them apart may be missing. Identical values can stand only once. Like-named read-outs stand apart in the source and are kept apart here.

In general, inhibition refers to the share of the control response that was lost under treatment.

Test [1] relates to Fusarium graminearum. Description: microbe, parasite or virus in culture. The test is classed as cell-based.
In test [2] the test system is Alternaria alternata apple pathotype. Description: In vitro antimicrobial activity test on PDA plate media (colony diameter). Type of test: cell-based. Particulars: used alone.
The subject of test [3] is Microdocum nivale. The description is as above. The following applies: used alone. The test is classed as cell-based.
For test [4], the system named is Pyrenophora graminea. Described as above. Type of test: cell-based. The following applies: used alone.
In test [5] the test system is Penicillium italicum. The description is as above. The test is classed as cell-based. The following applies: for inhibition at 0.13 ppm: Penicillium italicum, read-out: Actual fungal growth inhibition rate (%).
For test [6], the system named is Glomerella cingulata. The description is as above. The test is classed as cell-based.
Test [7] deals with Gaeumannomyces graminis. Described as above. The test is classed as cell-based. Particulars: used alone.
In test [8] the test system is Fusarium fujikuroi. The description is as above. The test is classed as cell-based. Particulars: used alone.
Test [9] relates to wheat leaf rust (Puccinia recondita). Description: Controlling effect test against wheat leaf rust (foliar spray on potted wheat seedlings). The following applies: sprayed alone. The test is classed as in vivo.
Test [10] has as its system Cercospora beticola. As to the kind of experiment: In vitro antimicrobial activity test in 96-well microplate (absorbance at 620 nm). The following applies: used alone. The test is classed as cell-based.
[11] abbreviates: Fusarium graminearum, read-out: Actual fungal growth inhibition rate (%).
[12] abbreviates: Colletotrichum gloeosporioides, used alone, 0.13 ppm, read-out: Actual fungal growth inhibition rate (%).
The mark [13] stands for this setting: Colletotrichum gloeosporioides, used alone, 0.50 ppm, read-out: Actual fungal growth inhibition rate (%).
Setting [14] is: Colletotrichum gloeosporioides, used alone, 0.01 ppm, read-out: Actual fungal growth inhibition rate (%).
Setting [15] is: Gaeumannomyces graminis, 0.13 ppm, read-out: Actual fungal growth inhibition rate (%).
Setting [16] is: Alternaria alternata, 0.13 ppm, read-out: Actual fungal growth inhibition rate (%).
The mark [17] stands for this setting: Pyrenophora graminea, 0.50 ppm, read-out: Actual fungal growth inhibition rate (%).

Regarding `CC(C)CC(C)c1sccc1NC(=O)c1cn(C)nc1C(F)(F)F` (stereo not shown) [Penthiopyrad, penthiopyrad], in test [1] (setting [11]), the inhibition at 1.25 ppm is 7%, the inhibition at 5 ppm was 22% and the inhibition at 20 ppm came out at 28%.
In the case of `COC(=O)C(O)(Cn1cncn1)c1ccc(Oc2ccc(C(F)(F)F)cc2)cc1Cl` (stereo not shown) [Azole derivative I-23], the “Actual fungal growth inhibition rate (%)” value in [2] (0.03 ppm) is 0%; in test [2] (0.13 ppm), 0%; in test [3] (0.01 ppm), 0%; in test [3] (0.13 ppm), 4% and 10%; in test [3] (0.50 ppm) it was 27% and 24%; in test [4] (0.08 ppm), 73%. In addition, the “Actual fungal growth inhibition rate (%)” value in test [4] (0.13 ppm) is given as 81%; in test [4] (0.31 ppm), 92%; in test [4] (0.50 ppm) it was 91%; in test [4] (1.25 ppm) it was 95%; in test [1], 79%; in test [5] (used alone, 0.01 ppm) it was 6%. Also, the “Actual fungal growth inhibition rate (%)” value in [5] (used alone, 0.03 ppm) was 12%; in test [5] (used alone, 0.13 ppm) it was 35%; in test [5] (used alone, 0.50 ppm) it was 52% and 43%; in test [6] (used alone, 0.03 ppm), 9%; in test [6] (used alone, 0.13 ppm), 31%; in [6] (used alone, 0.50 ppm) it was 61%. The “Actual fungal growth inhibition rate (%)” value in test [7] (0.01 ppm) came out at 0%; in [7] (0.03 ppm), 38%; in test [7] (0.08 ppm), 92%; in test [7] (5.00 ppm) it was 94%.
As to `O=C(NCCc1ncc(C(F)(F)F)cc1Cl)c1ccccc1C(F)(F)F` [Fluopyram, fluopyram, reference compound], the inhibition at 0.03 ppm in test [8] (Fusarium fujikuroi, 0.03 ppm, read-out: Actual fungal growth inhibition rate (%)) is 6%. Besides, the inhibition at 0.5 ppm was determined as 21% in test [8] (Fusarium fujikuroi, 0.50 ppm, read-out: Actual fungal growth inhibition rate (%)) and 9% in test [6] (setting [13]). The inhibition at 0.13 ppm in [6] (setting [12]) turned out to be 3%.
Take `Cn1cc(C(=O)Nc2ccccc2-c2cc(F)c(F)c(F)c2)c(C(F)F)n1` [Fluxapyroxad, fluxapyroxad, reference compound]: the “Actual fungal growth inhibition rate (%)” value was 0% in [7] (0.10 ppm); 0% and 9% in test [7] (1.56 ppm).
For the compound `CC1(C)CCC(Cc2ccc(Cl)cc2)C1(O)Cn1cncn1` (stereo not shown) [Metconazole, metconazole, reference compound], the inhibition at 0.001 ppm in test [6] (Colletotrichum gloeosporioides, used alone, 0.001 ppm, read-out: Actual fungal growth inhibition rate (%)) is 4%. The inhibition at 0.003 ppm in test [6] (Colletotrichum gloeosporioides, used alone, 0.003 ppm, read-out: Actual fungal growth inhibition rate (%)) is 7%. In addition, the inhibition at 0.01 ppm in [6] (setting [14]) was 28%.
In the case of `CO/C=C(/C(=O)OC)c1ccccc1Oc1cc(Oc2ccccc2C#N)ncn1` [Azoxystrobin, azoxystrobin, reference compound], the Actual controlling rate in test [9] (1.25 g/ha) was found to be 47%.
With `CCCN(CC)CC1COC2(CCC(C(C)(C)C)CC2)O1` (stereo not shown) [Spiroxamine, spiroxamine, reference compound], in test [4] (Pyrenophora graminea, 0.01 ppm, read-out: Actual fungal growth inhibition rate (%)), the inhibition at 0.01 ppm worked out at 0%. Also, the inhibition at 0.03 ppm in test [4] (Pyrenophora graminea, 0.03 ppm, read-out: Actual fungal growth inhibition rate (%)) was determined as 0%. For the same compound, the inhibition at 0.002 ppm in test [7] (Gaeumannomyces graminis, 0.002 ppm, read-out: Actual fungal growth inhibition rate (%)) came to 0%. For the same compound, the inhibition at 0.13 ppm in test [7] (setting [15]) turned out to be 0%.
For the compound `OC(Cc1ccccc1Cl)(Cn1nc[nH]c1=S)C1(Cl)CC1` (stereo not shown) [Prothioconazole, prothioconazole, reference compound], the inhibition at 0.13 ppm in test [2] (setting [16]) was 48%; in test [3] (0.13 ppm, read-out: Actual fungal growth inhibition rate (%)) it was 13%; in test [5] (used alone, 0.13 ppm), 18%; in test [5] (single chemical at 0.13 ppm) it was 19%; in [6] (setting [12]), 0%; in test [7] (setting [15]), 0%. In addition, the inhibition at 0.5 ppm in test [4] (setting [17]) worked out at 54%; in test [6] (setting [13]) it was 24%; in test [7] (Gaeumannomyces graminis, 0.50 ppm, read-out: Actual fungal growth inhibition rate (%)), 36%. In addition, the results for the inhibition at 0.01 ppm in test [1] (setting [11]) and in [6] (setting [14]) were 1% and 0%, respectively. The inhibition at 0.03 ppm stood at 19% in test [1] (setting [11]) and 1% in test [6] (Colletotrichum gloeosporioides, used alone, 0.03 ppm, read-out: Actual fungal growth inhibition rate (%)).
`CO/N=C(/C1=NOCCO1)c1ccccc1Oc1ncnc(Oc2ccccc2Cl)c1F` [Fluoxastrobin, fluoxastrobin, reference compound]: the inhibition at 0.13 ppm came to 48% in test [2] (setting [16]) and 51% in [4] (Pyrenophora graminea, 0.13 ppm, read-out: Actual fungal growth inhibition rate (%)). Moreover, the inhibition at 0.5 ppm in [2] (Alternaria alternata, 0.50 ppm, read-out: Actual fungal growth inhibition rate (%)) amounted to 43%; in [4] (setting [17]), 55%; in test [6] (setting [13]), 48%. For the same compound, the inhibition at 0.01 ppm in test [3] (0.01 ppm, read-out: Actual fungal growth inhibition rate (%)) is 96%. For the same compound, the “Actual fungal growth inhibition rate (%)” value in test [4] (0.13 ppm) came out at 46%; in test [4] (0.50 ppm), 59%.
As to `CC(O)(Cn1cncn1)c1ccc(Oc2ccc(Cl)cc2)cc1C(F)(F)F` (stereo not shown) [Mefentrifluconazole, mefentrifluconazole, reference compound], the “Actual fungal growth inhibition rate (%)” value in [2] (0.50 ppm) amounted to 62%; in test [3] (0.01 ppm), 1%; in test [6] (Glomerella cingulata, single chemical at 0.13 ppm), 74%; in test [6] (used alone, 0.01 ppm) it was 17%; in test [6] (used alone, 0.03 ppm), 41%; in test [6] (used alone, 0.50 ppm) it was 77%. In addition, the “Actual fungal growth inhibition rate (%)” value was 0% in [7] (0.002 ppm), 0% in test [7] (0.01 ppm) and 19% in [7] (0.03 ppm).
Turning to `CC(C)c1ccc(Cl)cc1CN(C(=O)c1c(C(F)F)nn(C)c1F)C1CC1` [Isoflucypram, isoflucypram], the “Actual growth inhibition rate” value is 7% in [10] (0.008 ppm), 3% in test [10] (0.04 ppm), 0% in test [10] (0.2 ppm) and 48% in test [10] (1.0 ppm).
Take `COC(=O)C(O)(Cn1cncn1)c1ccc(Oc2ccc(Cl)cc2)cc1C(F)(F)F` (stereo not shown) [Azole derivative I-122]: the “Actual fungal growth inhibition rate (%)” value is listed as 0% in test [2] (0.13 ppm); 5% in test [2] (0.50 ppm); 0% in test [3] (0.01 ppm); 0% in test [3] (0.03 ppm); 4% in test [3] (0.13 ppm); 75% in [4] (0.13 ppm). Moreover, the “Actual fungal growth inhibition rate (%)” value in [4] (0.50 ppm) is given as 82%; in [1], 83%; in test [6] (used alone, 0.01 ppm), 8%; in test [6] (used alone, 0.03 ppm), 14%; in [6] (used alone, 0.13 ppm), 45%; in [6] (used alone, 0.50 ppm) it was 82%. The “Actual fungal growth inhibition rate (%)” value in test [7] (0.01 ppm) was 0%; in [7] (0.03 ppm), 32%; in test [7] (0.13 ppm) it was 70% and 57%; in [7] (0.31 ppm) it was 96%; in [7] (0.50 ppm), 97%; in test [7] (1.25 ppm), 96%.
As to `CON(C(=O)c1cn(C)nc1C(F)F)C(C)Cc1c(Cl)cc(Cl)cc1Cl` (stereo not shown) [Pydiflumetofen, pydiflumetofen, reference compound], the Actual controlling rate in test [9] (0.63 g/ha) stood at 11%; in test [9] (1.25 g/ha), 44%; in test [9] (2.5 g/ha), 44%; in [9] (5 g/ha) it was 67%; in [9] (10 g/ha), 83%.
Take `COc1ccnc(C(=O)N[C@H]2COC(=O)[C@H](Cc3ccccc3)[C@@H](OC(=O)C(C)C)[C@H](C)OC2=O)c1OCOC(=O)C(C)C` [Fenpicoxamid, fenpicoxamid]: the “Actual growth inhibition rate” value in test [10] (0.04 ppm) was found to be 28%; in [10] (0.2 ppm), 59%; in test [10] (1.0 ppm), 60%; in test [10] (5.0 ppm), 100%.
With `Cn1cc(C(=O)Nc2ccc(F)cc2-c2ccc(Cl)c(Cl)c2)c(C(F)F)n1` [Bixafen, bixafen], the “Actual fungal growth inhibition rate (%)” value in [8] (0.13 ppm) is 13%; in [8] (0.50 ppm) it was 19%; in test [2] (0.03 ppm), 14%; in test [3] (0.10 ppm), 0%; in test [4] (1.56 ppm) it was 75%; in test [1] (used alone, 0.10 ppm) it was 6% and 0%.
